Several values for one entry are separate records, joined by “and”; a condition that tells them apart may be missing. Equal entries are not always repeated.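 Exposure lasted 48 hours, with cells grown in 96-well plates and compounds tested at five concentrations. GI50 = concentration required for 50% inhibition of growth. The concentration for full growth arrest is given as TGI.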
Key:
Test in all cases: growth of human tumour cells (NCI), 48 h
UO-31 renal = test system: UO-31 renal
NCI-H460 lung = test system: NCI-H460 lung
SK-OV-3 ovarian = test system: SK-OV-3 ovarian
SF-268 CNS = test system: SF-268 CNS
UACC-257 melanoma = test system: UACC-257 melanoma
RXF 393 renal = test system: RXF 393 renal
OVCAR-8 ovarian = test system: OVCAR-8 ovarian
NCI-H522 lung = test system: NCI-H522 lung
NCI-H226 lung = test system: NCI-H226 lung
NCI/ADR-RES ovarian = test system: NCI/ADR-RES ovarian

Structure (SMILES)	TGI (UO-31 renal) [µM]	TGI (NCI-H460 lung)	TGI (SK-OV-3 ovarian) [µM]	TGI (SF-268 CNS)	TGI (UACC-257 melanoma) [µM]	TGI (RXF 393 renal)	TGI (OVCAR-8 ovarian) [µM]	TGI (NCI-H522 lung)	TGI (NCI-H226 lung)	GI50 (UO-31 renal) [µM]	GI50 (NCI-H460 lung) [µM]	GI50 (SK-OV-3 ovarian)	GI50 (SF-268 CNS)	GI50 (UACC-257 melanoma) [µM]	GI50 (NCI/ADR-RES ovarian) [µM]	TGI (NCI/ADR-RES ovarian) [µM]	GI50 (RXF 393 renal)	GI50 (OVCAR-8 ovarian) [µM]	GI50 (NCI-H522 lung)	GI50 (NCI-H226 lung) [µM]
CC(=O)CCCCCCCCCCCC[C@@H]1CC[C@H](C)[C@H](O)N1	> 100	> 100 µM	> 100	> 100 µM	> 100	> 100 µM	> 100	> 100 µM	> 100 µM	–	–	–	–	–	–	–	–	–	–	–
Clc1ccc(-n2nnc(C3=NCCN3)c2-c2ccccc2)cc1	> 100	> 100 µM	> 100	> 100 µM	> 100	> 100 µM	> 100	> 100 µM	> 100 µM	–	–	–	–	–	–	–	–	–	–	–
O=C1C=C[C@@]23CC1C(O)C[C@H]2C=Cc1ccccc13 (stereo partly specified)	> 100	> 100 µM	> 100	> 100 µM	> 100	–	> 100	> 100 µM	> 100 µM	–	–	–	–	–	–	–	–	–	–	–
COCCn1cc(-c2csc(-c3c[nH]c4ccccc34)n2)c2cccnc21	> 100	> 100 µM	> 100	> 100 µM	> 100	64.3 µM	> 100	–	–	4.15	3.4	14.8 µM	6.98 µM	> 100	1.76	6.9	5.76 µM	8	–	–
COC(=O)C1=C(C)N(NC(N)=O)C2(N)N(NC(N)=O)C(C)=C(C(=O)OC)C12C(=O)OC (stereo unspecified)	> 100	> 100 µM	> 100	> 100 µM	> 100	–	> 100	> 100 µM	> 100 µM	–	–	–	–	–	–	–	–	–	–	–
Clc1ccc(Cl)c2[s+]snc12	> 100	> 88.3 µM	> 100	> 100 µM	> 100	–	> 100	44 µM	> 100 µM	–	–	–	–	–	–	–	–	–	–	–
N#CC(C(=O)/C(=N/N)C(C#N)c1ccc(Cl)cc1)c1ccc(Cl)cc1 (stereo unspecified)	> 100	> 100 µM	–	> 100 µM	> 100	> 100 µM	> 100	> 100 µM	> 100 µM	–	–	–	–	–	–	–	–	–	–	–
COc1ccc(C=C2C(=O)OC(C)(C)OC2=O)cc1OC	> 100	> 100 µM	> 100	> 100 µM	> 100	–	> 100	> 100 µM	–	–	–	–	–	–	–	–	–	–	–	–
C/C(O)=C(\N=O)C(=O)NCCc1ccccc1	> 100	> 58.4 µM	> 100	> 100 µM	> 100	> 100 µM	> 100	> 100 µM	> 100 µM	–	–	–	–	–	–	–	–	–	–	–
[Cl][Bi]([O]c1ccccn1)[O]c1ccccn1	> 100	–	> 100	> 100 µM	> 100	> 100 µM	> 100	–	–	> 100	–	> 100 µM	> 100 µM	> 100	–	–	> 100 µM	> 100	–	–
COc1c(O)c2c(c3cc(C(=O)N4CCc5c4c(O)c(OC)c4[nH]c(C(=O)N6CC7CC78C6=CC(=O)c6[nH]cc(C)c68)cc54)[nH]c13)CCN2C(N)=O (stereo unspecified)	–	1.83 nM and 137 nM and 0.00377 µg/mL	–	47.4 nM and > 100 µM and 0.00521 µg/mL	–	447 nM and 0.0456 µg/mL	0.00265	48.3 nM and 0.0372 µg/mL	1.47 nM and 276 nM and 0.0163 µg/mL	0.223	–	–	–	1.34	–	–	0.0282 µg/mL	–	0.0168 µg/mL	–
Cc1ccc(NC(=O)CC2C(=O)Nc3ccccc3S2=O)cc1C (stereo unspecified)	> 100	> 100 µM	–	> 100 µM	> 100	41.8 µM	> 100	> 100 µM	> 100 µM	–	–	–	–	–	–	–	–	–	–	–
CC(=O)Nc1ccc(C(=O)N2N=C(C)/C(=C/c3ccccc3O)C2=O)cc1	> 100	> 100 µM	–	> 100 µM	> 100	–	> 100	> 100 µM	> 100 µM	–	–	–	–	–	–	–	–	–	–	–
CC1OC(n2ncc(=O)[nH]c2=O)C=CC1=O (stereo unspecified)	> 100	> 100 µM	> 100	> 100 µM	> 100	–	> 100	37.6 µM and 36.2 µM	> 100 µM	–	–	> 100 µM and 29.3 µM	> 100 µM and 36.6 µM	37	–	–	–	–	–	–
O=C(O)c1ccc2c(c1)Cc1cc([N+](=O)[O-])ccc1-2	> 100	> 100 µM	> 100	> 100 µM	> 100	–	> 100	> 100 µM	> 100 µM	–	–	–	–	–	–	> 100	–	–	–	–
N[C@@H](Cc1c[nH]c2ccccc12)C(=O)NC1CCN(C(=O)c2c[nH]c3ccccc23)CC1	> 100	> 100 µM	> 100	> 100 µM	–	–	> 100	> 100 µM	> 100 µM	> 100	79.9	90.5 µM	> 100 µM	–	> 100	> 100	–	> 100	> 100 µM	> 100
CSc1nc(NC2OCC(OC(C)=O)C(OC(C)=O)C2OC(C)=O)c2c(OC(C)=O)c(C)c(=O)oc2n1 (stereo unspecified)	> 100	> 100 µM	> 100	–	> 100	> 100 µM	> 100	–	> 100 µM	–	–	–	–	–	–	–	–	–	–	–
CCN1C2=NC(=O)N(C)C(=O)C2(Cl)C(C(SC)S(=O)(=O)c2ccc(C)cc2)c2ccccc21 (stereo unspecified)	76.1	> 100 µM	> 100	> 100 µM	> 100	–	50.4	25.9 µM	> 100 µM	–	–	–	–	–	–	–	–	–	–	–
COc1ccc(/C=N/N=C(\N)NO)cc1OC	> 100	> 100 µM	> 100	73.6 µM	> 100	67.4 µM	> 100	79.9 µM	> 100 µM	–	–	–	–	–	–	–	–	–	–	–
CC(O)/C=C/C(CCC(C)CO)C(C)C (stereo unspecified)	> 100	> 100 µM	> 100	> 100 µM	> 100	> 100 µM	> 100	> 100 µM	–	–	–	–	–	–	–	–	–	–	–	–
O=C1NC(=S)NC(=O)C1=Cc1cc2c(cc1[N+](=O)[O-])OCO2	> 100	> 100 µM	> 100	> 100 µM	> 100	> 100 µM	> 100	> 100 µM	> 100 µM	–	–	–	–	–	–	–	–	–	–	–

Reference: PubChem BioAssay (NCI)
